The source of these data is patent publication US8084589B2, “Phosphoramidite nucleoside analogs” (University of Massachusetts, priority 2007, dated 2011).

The nature of data set [1]: Storage stability of synthon 2 (coupling efficiency on the synthesizer). Type of data set: physicochemical. The note with it: for coupling yield of the monomer: in anhydrous acetonitrile at room temperature, 3 minutes coupling. The protocol:
Usually the compound was dissolved in anhydrous acetonitrile under argon and was kept on the synthesizer for up to two weeks at room temperature. The coupling yield of the monomer for the 3 minutes coupling duration was 98-99% after 7-8 days, and for the same coupling conditions coupling yield decreased to 90% after additional 10-12 days. Coupling yields were assessed using a DMTr detector reading on the synthesizer.

The nature of data set [2]: Storage stability of oligonucleotide conjugate in water (HPLC). Type of data set: physicochemical. The settings on record: deionized water, −20° C., approximately four months. The protocol:
A limited stability study of one of the novel oligonucleotide conjugates, VIII, which contained 800CW dye at the 8th nucleoside from the 5′-end (see Table 2), was performed.

A short description of data set [3]: Melting temperature of oligonucleotide duplexes (UV, FRET loss or dequenching). Type of data set: physicochemical. The settings on record: for Melting point, ° C, method: Table 5, method UV. As to the method:
Watson-Crick base paring properties of the modified oligonucleotides were evaluated by comparison of melting temperatures of a duplex formed between the amino-functionalized oligonucleotide CGG AAA GT*C CCT CAT AGC T (I, SEQ ID NO: 1) and its complementary unmodified oligonucleotide 3′[…] 5′ (Duplex 1, SEQ ID NO:5) and a control, unmodified duplex with the same sequence (Duplex 2). The melting temperatures were almost equal, i.e. 65 and 66° C. for Duplexes 1 and 2, respectively.
The conjugates were characterized by HPLC analysis, mass spectrometry and UV/VIS spectroscopy. Briefly, spectral measurements were performed using a Cary 50 Bio UV-visible spectrophotometer. Melting temperatures were determined with a step-wise Peltier temperature ramping bath in 2 degree mode in a temperature-controlled cuvette holder. Electrospray mass spectrometry (MS) was performed with a LTQ Linear Ion trap mass spectrometer (Thermo, Inc) with use of a Nanomate (Advion, Inc.) robot. Spectra were obtained in the negative ion mode with 1.8 kV spray voltage and 0.8 PSI back pressure (UMMS Proteomic and Mass Spectrometry Core Facility, University of Massachusetts Medical School, Worcester, Mass.). Sample solutions were adjusted to 75% methanol before MS analysis. The full mass spectra were acquired for 30 seconds from m/z 400-2000 using 2 ms scans and 10 ms maximum injection time.
The synthesized ODN duplex probes were characterized by comparing melting temperatures of native, non-modified ODN pair to those duplexes prepared by using covalently labeled ODNs.
The FRET between Cy5.5 and the acceptor on complementary ODN was observed after Cy5.5-ODN3 was incubated with Cy7- or 800CW-linked to ODN2 (see FIGS. 20A-B). […] In the presence of internucleoside phosphate-linked Cy7 on the complementary strand it was observed more than 10 times lower fluorescence of Cy5.5 measured at 700 nm (λex=675 nm) and a 3-fold higher fluorescence of Cy7 (if compared to the duplex formed between Cy7-ODN2 and ODN3), FIGS. 20A-D. The formation of duplexes and reversible FRET effects were further studied in more detail by following sigmoidal dependence of the temperature-dependent increase of Cy5.5 fluorescence in a microcuvette of a spectrofluorometer. These experiments enabled measurement of two parameters: melting temperatures and the overall FRET efficacy (Table 5).

For the next data set, the target named is T1, NF-κB p50 (Homo sapiens, UniProt P19838).
T1 sequence (P19838 1-433 limits assumed): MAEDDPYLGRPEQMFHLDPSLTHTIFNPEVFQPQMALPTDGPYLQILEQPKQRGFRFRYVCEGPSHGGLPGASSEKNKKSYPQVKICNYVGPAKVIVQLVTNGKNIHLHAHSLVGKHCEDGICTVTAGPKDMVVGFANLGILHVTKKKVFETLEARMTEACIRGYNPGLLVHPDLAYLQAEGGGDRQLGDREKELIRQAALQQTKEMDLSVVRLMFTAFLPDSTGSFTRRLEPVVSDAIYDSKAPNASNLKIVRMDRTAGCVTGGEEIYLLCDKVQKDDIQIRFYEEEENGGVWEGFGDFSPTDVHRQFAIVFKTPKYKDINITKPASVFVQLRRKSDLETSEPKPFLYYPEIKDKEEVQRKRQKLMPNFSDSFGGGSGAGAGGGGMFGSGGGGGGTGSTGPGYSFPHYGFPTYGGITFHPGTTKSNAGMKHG
Put plainly: EMSA of recombinant p50 binding to fluorescent duplexes. The settings on record: both Cy5.5-800CW and Cy5.5-Cy7 donor/acceptor pairs. From the text: The binding of NF-κB p50 to duplexes was initially followed by using two methods: 1) electrophoretic mobility shift essay (EMSA) in polyacrylamide gels; 2) fluorescence energy transfer loss measurements after adding p50 to the duplex in solution. In the first case the components of the mixture are off equilibrium since the free duplex is separated due to a faster migration in electric field during the analysis. The second method afforded measurements at the equilibrium but the observed fluorescence change values are affected by the background fluorescence due to the presence of the free duplex. […] Fluorescence of both free and bound duplex could be imaged by using a transillumination scanner and CCD camera that detected emitted light at two wavelengths—[…] (FIG. 21A) and 800 nm (FIG. 21B, fused image—FIG. 21C). […] However, by comparing Cy5.5-labeled duplexes (ODN2/Cy5.5-ODN3 and ODN4/Cy5.5-ODN5) it was determined that in the case of full-length binding sites 94% of fluorescence co-migrated with p50, whereas only 63% co-migrated with ODN4/Cy5.5-ODN5 duplex (FIG. 21D) at the saturating concentrations of p50 monomer (200 nM).
The half-maximal amount of p50 was 238-300 ng (corresponding to approximately 600 nM). […] A similar trend was observed if 800CW dye was used as Cy5.5 fluorescence acceptor and the differences were also significant (p=0.02).
A general note: In EMSA bound probe runs differently from free probe, usually more slowly.

Strand notation (5' to 3'): a small letter for the sugar, then the base; units joined by * are phosphorothioate-linked, units joined directly phosphodiester-linked; [ ] holds rarer units or linkages, { } end groups; capitals alone tell only the bases. [TEGam] = internucleoside phosphate triester carrying a triethylene glycol amino linker (free amine, native form); {Y} = hydroxypropyldithiopropyl phosphate linker, HOCH2CH2SSCH2CH2CH2O-P(O)(OH)-; d = 2'-deoxy (DNA)

With `COc1ccc(C(OC[C@H]2O[C@@H](n3cc(C)c(=O)[nH]c3=O)C[C@@H]2OP(OCCOCCOCCNC(=O)C(F)(F)F)N(C(C)C)C(C)C)(c2ccccc2)c2ccc(OC)cc2)cc1` (stereo partly shown) [synthon 2, 5′-O-DMTr-thymidine-3′-O-(2-(2-(2-trifluoroacetamidoethoxy)-ethoxy)ethyl)-N,N-diisopropylphosphoramidite], in data set [1] (dry acetonitrile, on synthesizer, room temperature), the “stability in dry acetonitrile” value is “stable in dry acetonitrile for at least one week”. Moreover, the figures for the “coupling yield of the monomer” value in data set [1] (after 7-8 days) and in data set [1] (after additional 10-12 days) were 98-99% and 90%, respectively. Besides, the “stability of dry monomer on storage” value in data set [1] (stored six months at −20° C.) is “no apparent decrease in coupling efficiency”.
Consider CGGAAAGT^800CWCCCTCATAGCT [VIII], for which, in data set [2], the “stability by HPLC analysis” value is “no signs of degradation”.
As to “I/XIX: non-labelled duplex of I and XIX (chain 1 dCdGdGdAdAdAdGdT[TEGam]dCdCdCdTdCdAdTdAdGdCdT; chain 2 dAdGdCdTdAdTdGdAdGdGdGdAdCdTdTdTdCdCdG-{Y})”, in data set [3] (Table 3, method UV), the “Melting point, ° C., (method)” value is given as 64 (UV) ° C. In addition, the “Melting point, ° C, method” value in data set [3] is listed as 64 (UV) ° C.
Turning to “ODN1/ODN3: non-labeled duplex of ODN1 and ODN3 (chain 1 CGGAAAGTCCCTCATAGCT; chain 2 dAdGdCdTdAdTdGdAdGdGdGdAdCdTdTdTdCdCdG-{Y}; chain 1: unmodified DNA) [reference compound]”, in data set [3], the “Melting point, ° C, method” value is recorded as 66 (UV) ° C.
In the case of “ODN4/ODN5: duplex with truncated NF-κB p50 binding site GGAAAG (chain 1 TGGAAAGCTTTTTACAGTT; chain 2 AACTGTAAAAAGCTTTCCA; listed as DNA, chemistry not fully specified)”, the “fluorescence changes in EMSA bands on p50 binding” value with NF-κB p50 is recorded as “no measurably significant fluorescence changes”. For the same compound, the “Melting point, ° C, method” value in data set [3] was 61 (UV) ° C.
